The target in this assay is recombinant full-length FEN-1 (Homo sapiens (Human), UniProt P39748). The assay can be described thus: Fluorogenic biochemical (enzymatic) assay, FEN-1. Particulars: 200 nM DNA flap substrate, 50 mM Tris pH 8.0, 10 mM MgCl2, 2-4 hours at 25° C. or 37° C., read-out: SMD FEN-1 IC50. As for the experimental part: Fluorogenic biochemical assays used recombinant full-length FEN-1 or catalytic domains of Exo1, XPG or GEN1 and 200 nM of a DNA substrate (formed by annealing three oligonucleotides—quencher (5′-CACGTTGACTACCGCTCAATCCTGACGAACACATC-BHQ2), flap (5′-TAMRA-GA TGTCAAGCAGTCCTAACTTTGAGGCAGAGTCCGC) and template (5′-GC GGACTCTGCCTCAAGACGGTAGTCAACGTG-3′) (PMID: 21062821)) in 50 mM Tris pH 8.0, 10 mM MgCl2, 1 mM DTT, and 0.01% Tween-20. Inhibitors arrayed in dose response were added from DMSO stocks (using a V&P 384-pintool head) to the enzyme solution in low volume, black polystyrene 384-well plates (Corning #3677) 15 minutes prior to the addition of the DNA substrate. Reactions were allowed to proceed for 2-4 hours at 25° C. or 37° C. Fluorescence data (Excitation: 530 nm/10 nm bandwidth; Emission: 590 nm/20 nm bandwith) were measured with an Infinite M1000 plate reader (Tecan).
Sequence of recombinant full-length FEN-1 (P39748 whole entry, the tested form may be a part): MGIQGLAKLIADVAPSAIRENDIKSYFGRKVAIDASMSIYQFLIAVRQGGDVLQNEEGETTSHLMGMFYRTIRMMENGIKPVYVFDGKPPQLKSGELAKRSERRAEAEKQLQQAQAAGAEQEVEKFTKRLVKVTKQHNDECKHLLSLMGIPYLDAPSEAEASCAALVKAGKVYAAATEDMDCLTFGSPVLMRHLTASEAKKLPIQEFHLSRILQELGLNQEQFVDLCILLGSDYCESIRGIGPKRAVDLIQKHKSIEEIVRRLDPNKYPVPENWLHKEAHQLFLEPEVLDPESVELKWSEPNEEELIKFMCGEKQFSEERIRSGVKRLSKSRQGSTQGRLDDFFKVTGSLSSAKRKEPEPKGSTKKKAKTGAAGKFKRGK
With `O=c1[nH]c2c(S(=O)(=O)c3ccc(Br)cc3)cccc2c(=O)n1O` [Compound 45], the IC50 stood at 14 nM. The same measure for `Cc1cc(F)cc(S(=O)(=O)c2ccc(Cl)c3c(=O)n(O)c(=O)[nH]c23)c1` [Compound 77]: 8.5 nM. As to `O=c1[nH]c2cc(F)ccc2c(=O)n1O` [Compound 37], the IC50 is 171 nM. The same measure for `O=c1[nH]c2c(S(=O)(=O)c3cc(Br)cc(Br)c3)cccc2c(=O)n1O` [Compound 61]: 16.6 nM; for `O=c1[nH]c2c(S(=O)(=O)c3ccccc3)cc(F)cc2c(=O)n1O` [Compound 40]: 15.6 nM; for `O=c1[nH]c2c(S(=O)(=O)c3ccc4[nH]cnc4c3)cccc2c(=O)n1O` [Compound 72]: 5.6 nM.

Regarding `O=c1[nH]c2c(Cc3ccccc3)ccc(Cl)c2c(=O)n1O` [Compound 28], the half-maximal inhibitory concentration (IC50) worked out at 77.2 nM.

With `O=c1[nH]c2nc(-c3ccccc3)ccc2c(=O)n1O` [Compound 16], the half-maximal inhibitory concentration (IC50) is 392 nM. Then `O=c1[nH]c2c(S(=O)(=O)c3cccc(C(F)(F)F)c3)cccc2c(=O)n1O` [Compound 41], with 13.3 nM; and `COc1cccc(S(=O)(=O)c2cccc3c(=O)n(O)c(=O)[nH]c23)c1` [Compound 42], with 16.5 nM. Then `O=c1[nH]c2c(S(=O)(=O)c3cc(F)cc(F)c3)cccc2c(=O)n1O` [Compound 57], with 12.8 nM. Then `CC(=O)Nc1cc(NC(C)=O)cc(S(=O)(=O)c2cccc3c(=O)n(O)c(=O)[nH]c23)c1` [Compound 73], with 7.6 nM; and `O=c1[nH]c2cccc(Cl)c2c(=O)n1O` [Compound 11], with 20.8 nM. Take `O=c1[nH]c2c(S(=O)(=O)c3cccc(F)c3)ccc(Cl)c2c(=O)n1O` [Compound 70]: the IC50 amounted to 9.8 nM.

As for `O=c1[nH]c2c(S(=O)(=O)c3cccc(F)c3)cccc2c(=O)n1O` [Compound 69], the IC50 was 10 nM.

In the case of `O=c1[nH]c2cccc(Br)c2c(=O)n1O` [Compound 35], the IC50 came to 19.6 nM. The same measure for `Cc1cccc(S(=O)(=O)c2c(Cl)ccc3c(=O)n(O)c(=O)[nH]c23)c1` [Compound 52]: 139 nM; for `O=c1[nH]c2c(S(=O)(=O)c3cc(Cl)cc(Cl)c3)cccc2c(=O)n1O` [Compound 54]: 18.1 nM.

For the molecule `O=c1[nH]c2nc(S(=O)(=O)c3ccccc3)ccc2c(=O)n1O` [Compound 19], the IC50 came out at 134 nM. Then `Cc1cccc(S(=O)(=O)c2cc(Cl)cc3c(=O)n(O)c(=O)[nH]c23)c1` [Compound 44], with 10.9 nM; and `O=c1[nH]c2c(S(=O)(=O)c3ccccc3)c(F)ccc2c(=O)n1O` [Compound 68], with 94.4 nM.

On to `O=c1[nH]c2c(-c3ccccc3)ccc(Cl)c2c(=O)n1O` [Compound 26], for which the IC50 is 37.3 nM. Turning to `O=c1[nH]c2ccccc2c(=O)n1O` [Compound 12], the IC50 was 241 nM.

As to `O=c1[nH]c2ccc(F)cc2c(=O)n1O` [Compound 38], the IC50 came out at 216 nM.

Take `O=c1[nH]c2c(F)cccc2c(=O)n1O` [Compound 36]: the IC50 was 42 nM. Turning to `Nc1cc(N)cc(S(=O)(=O)c2cccc3c(=O)n(O)c(=O)[nH]c23)c1` [Compound 74], the IC50 turned out to be 8.5 nM. Regarding `CNC(=O)Nc1cccc(S(=O)(=O)c2cccc3c(=O)n(O)c(=O)[nH]c23)c1` [Compound 59], the 50% inhibitory concentration (IC50) is 14.1 nM. Then `COc1cc(OC)cc(S(=O)(=O)c2cccc3c(=O)n(O)c(=O)[nH]c23)c1` [Compound 65], with 17 nM.

In the case of `N#Cc1cccc(S(=O)(=O)c2cccc3c(=O)n(O)c(=O)[nH]c23)c1` [Compound 56], the IC50 was 14.8 nM. `O=c1[nH]c2cc(S(=O)(=O)c3ccccc3)ccc2c(=O)n1O` [Compound 22]: the IC50 turned out to be 79.5 nM.

Regarding `O=c1[nH]c2cccc(F)c2c(=O)n1O` [Compound 39], the IC50 stood at 54.4 nM.

Take `O=c1[nH]c2c(S(=O)(=O)c3cc(F)cc(F)c3)ccc(Cl)c2c(=O)n1O` [Compound 71]: the IC50 was determined as 6.7 nM. Then `Nc1cccc(S(=O)(=O)c2cccc3c(=O)n(O)c(=O)[nH]c23)c1` [Compound 49], with 35.4 nM; and `O=c1[nH]c2c(S(=O)(=O)c3cccs3)cccc2c(=O)n1O` [Compound 75], with 11.6 nM. Then `O=c1[nH]c2c(S(=O)(=O)c3cccc(O)c3)cccc2c(=O)n1O` [Compound 47], with 15.7 nM.

Regarding `O=c1[nH]c2c(S(=O)(=O)c3cccc(Cl)c3)cccc2c(=O)n1O` [Compound 34], the IC50 is 26.4 nM.

Regarding `O=c1[nH]c2cc(S(=O)(=O)Cc3ccccc3)cnc2c(=O)n1O` [Compound 25], the IC50 worked out at 1640 nM. The same measure for `COc1ccc(S(=O)(=O)c2cccc(C)c2)c2[nH]c(=O)n(O)c(=O)c12` [Compound 80]: 9.4 nM; for `Cc1cccc(S(=O)(=O)c2ccc(Cl)c3c(=O)n(O)c(=O)[nH]c23)c1` [Compound 48, 5-chloro-3-hydroxy-8-(m-tolylsulfonyl)quinazoline-2,4(1H,3H)-dione]: 9.3 nM. Then `O=c1[nH]c2c(S(=O)(=O)c3ccc(Cl)cc3)cccc2c(=O)n1O` [Compound 33], with 26.1 nM; and `CN(C)c1cccc(S(=O)(=O)c2cccc3c(=O)n(O)c(=O)[nH]c23)c1` [Compound 64], with 14.9 nM. Take `Cc1cc(Cl)cc(S(=O)(=O)c2ccc(Cl)c3c(=O)n(O)c(=O)[nH]c23)c1` [Compound 76]: the IC50 was 9.4 nM. The same measure for `Cc1cccc(S(=O)(=O)c2cc(F)cc3c(=O)n(O)c(=O)[nH]c23)c1` [Compound 53]: 13.7 nM. The same measure for `CC(=O)Nc1cccc(S(=O)(=O)c2cccc3c(=O)n(O)c(=O)[nH]c23)c1` [Compound 55]: 16.5 nM; for `Cn1c(=O)n(O)c(=O)c2cccnc21` [Compound 17]: 3340 nM. For `O=c1[nH]c2c(S(=O)(=O)c3ccccc3)cccc2c(=O)n1O` [Compound 21], the concentration for half-maximal inhibition (IC50) was 23.8 nM.

`O=c1[nH]c2ncccc2c(=O)n1O` [Compound 14]: the IC50 amounted to 106 nM. The same measure for `O=c1c2cccnc2n(-c2ccccc2)c(=O)n1O` [Compound 20]: 2830 nM. On to `O=c1[nH]c2c(S(=O)(=O)c3cccc(Nc4ncccn4)c3)cccc2c(=O)n1O` [Compound 60], for which the half-maximal inhibitory concentration (IC50) was 16 nM. `NC(=O)Nc1cccc(S(=O)(=O)c2cccc3c(=O)n(O)c(=O)[nH]c23)c1` [Compound 63]: the IC50 was found to be 16.9 nM.

In the case of `O=c1[nH]c2c(S(=O)(=O)c3cccc(Br)c3)cccc2c(=O)n1O` [Compound 46], the IC50 amounted to 12.9 nM. The same measure for `CN(C)c1cc(N(C)C)cc(S(=O)(=O)c2cccc3c(=O)n(O)c(=O)[nH]c23)c1` [Compound 81]: 18.4 nM; for `Cc1cccc(S(=O)(=O)c2cccc3c(=O)n(O)c(=O)[nH]c23)c1` [Compound 32]: 14.5 nM.

In the case of `O=c1[nH]c2c(Cc3ccccc3)cccc2c(=O)n1O` [Compound 24], the IC50 came to 53.8 nM.

As for `Cc1cc(C)cc(S(=O)(=O)c2cccc3c(=O)n(O)c(=O)[nH]c23)c1` [Compound 50], the IC50 was determined as 11.6 nM. The same measure for `O=c1[nH]c2c(S(=O)(=O)c3cc(O)cc(O)c3)cccc2c(=O)n1O` [Compound 66]: 9.3 nM; for `O=c1[nH]c2c(S(=O)(=O)Cc3ccccc3)cccc2c(=O)n1O` [Compound 30]: 129 nM; for `COc1ccc(S(=O)(=O)c2ccccc2)c2[nH]c(=O)n(O)c(=O)c12` [Compound 78]: 6.6 nM. `Cc1cccc(S(=O)(=O)c2ccc(F)c3c(=O)n(O)c(=O)[nH]c23)c1` [Compound 67]: the IC50 was 17.8 nM.

As to `Cc1cccc(S(=O)(=O)c2c(F)ccc3c(=O)n(O)c(=O)[nH]c23)c1` [Compound 51], the IC50 is 19.2 nM. For the molecule `O=c1[nH]c2cc(S(=O)(=O)Cc3ccccc3)ccc2c(=O)n1O` [Compound 29], the IC50 came to 160 nM. Then `O=c1[nH]c2cc(-c3ccccc3)ccc2c(=O)n1O` [Compound 15], with 356 nM.

In the case of `O=c1[nH]c2ccncc2c(=O)n1O` [Compound 13], the half-maximal inhibitory concentration (IC50) turned out to be 1310 nM. Consider `O=c1[nH]c2c(S(=O)(=O)c3cccc(Nc4ccccn4)c3)cccc2c(=O)n1O` [Compound 62], for which the IC50 came out at 28.9 nM. The same measure for `O=c1[nH]c2c(S(=O)(=O)c3ccccc3)ccc(Cl)c2c(=O)n1O` [Compound 43]: 9.9 nM; for `O=c1[nH]c2c(-c3ccccc3)cccc2c(=O)n1O` [Compound 18]: 113 nM; for `Cc1ccc(S(=O)(=O)c2cccc3c(=O)n(O)c(=O)[nH]c23)cc1` [Compound 31]: 24.2 nM. As for `O=c1[nH]c2c(S(=O)(=O)c3cccs3)ccc(Cl)c2c(=O)n1O` [Compound 79], the IC50 was 16.6 nM.

On to `COC(=O)Nc1cccc(S(=O)(=O)c2cccc3c(=O)n(O)c(=O)[nH]c23)c1` [Compound 58], for which the IC50 is 12.8 nM. Consider `O=c1[nH]c2cc(Cc3ccccc3)ccc2c(=O)n1O` [Compound 27], for which the IC50 is 97.3 nM. Turning to `O=c1[nH]c2nc(Cc3ccccc3)ccc2c(=O)n1O` [Compound 23], the IC50 was found to be 11 nM.

(Values after patent US11253521B2, “3-hydroxy-quinazoline-2,4-dione derivatives and their use as nuclease modulators” (Ludwig Institute for Cancer Research Ltd, priority 2015, dated 2022).)
